Assay [1] deals with histone deacetylase. Kind of assay: Effect of tricostatin A (TSA) treatment on histone H4 acetylation, immunoblot of rice callus cells. Particulars: 1 μM TSA with 20 μM ABA, 1 to 6 hours. The format is cell-based. Here is the method:
Rice callus cells, leaves and roots were incubated in MS medium with (+) or without (−) 20 μM ABA for one hour, transferred to MS medium containing 20 μM ABA and 1 μM TSA, incubated for 1 to 6 hours and then subjected to TSA treatment. Next, about 0.1 g of rice tissues was pulverized, homogenized with a buffer solution containing 50 mM Tris-HCl (pH 8.0), 150 mM NaCl, 10% glycerol, 0.5% Triton X-100, 2 mM phenylmethanesulfonyl fluoride, 1 μg/ml aprotinine, 1 μg/ml pepstatin and 1 μg/ml leupeptin, and then incubated at 4° C. for one hour. After incubation, the mixed solution was centrifuged at 4° C. for 5 minutes, and the protein concentration was determined using Bradford solution (BioRad, USA). The protein extract was separated from 12% SDS gel, transferred to polyvinylidene difluoride (PVDF) membrane (Immobilon-P, Millipore), and then reacted with mouse HDAC1 (mHDAC1), histone H4 (H4), acetylated histone (AcH4), the secondary antibody wherein primary antibody to acetylated histone H4 (AcH4) (Upstate Biotechnology, USA) is combined with alkaline phosphatase. […] Thus, it was confirmed that the expression of tetra-acetylated histone H4 as reduced in Ai::OsHDAC1 rice plant is increased again by TSA treatment.
For orientation: Immunoblotting shows a protein as a band on a membrane.

The subject of assay [2] is untransformed rice plant. As to the kind of experiment: Phenotype and growth in MS medium with 20 μM ABA, untransformed rice plant. It counts as in vivo. Particulars: 2 weeks. Here is the method:
(§1) In order to investigate the effect of overexpression of OsHDAC1 on the phenotype and growth of Ai::OsHDAC1 rice plant, Ai::OsHDAC1 rice plant was incubated as the first generation and then, young seedlings or calluses at the second generation were transferred to MS medium with or without 20 μM ABA and incubated for 2 weeks. After incubation, the whole shape of rice plant, and leaves, collars and roots were observed. As the control group, untransformed rice plant was also observed. FIGS. 6a, 6b, 6c and 6d are photographs showing the growth and morphological change of Ai::OsHDAC1 rice plant, the change in the growth of leaves, the change of collars and the change of roots, respectively. In each drawing, NT denotes untransformed rice plant and lanes 2, 3 and 4 in FIGS. 6b, 6c and 6d denote respective individuals of transformed Ai::OsHDAC1 rice plant.

Assay [3] has as its system OsHDAC1 transcription product. As to the kind of experiment: Effect of ABA treatment on expression of OsHDAC1 transcription product in leaves of Ai::OsHDAC1 rice plant. It counts as cell-based. The following applies: 20 μM ABA, MS medium. Here is the method:
While leaves of Ai::OsHDAC1 rice plant produced by above Example 5 was incubated in MS medium with or without 20 μM ABA, a total RNA was isolated from leaves at regular intervals to examine the expression level of OsHDAC1 transcription product. As the result, it was identified that the expression of the transcription product reaches at the maximum level one hour after ABA treatment and rapidly decreases after 6 hours. Then, callus cells, leaves and roots of rice plant were incubated in MS medium with or without 20 μM ABA for one hour, and a total RNA was extracted. […] Further, the same result could be confirmed from Western blot analysis of OsHDAC1 protein.

Assay [4] has as its system Ai::OsHDAC1 rice plant. As to the kind of experiment: Phenotype and growth in MS medium with 20 μM ABA, Ai::OsHDAC1 rice plant. It counts as in vivo. The following applies: 2 weeks. Here is the method: as §1

For `CC(/C=C/C(=O)NO)=C\[C@@H](C)C(=O)c1ccc(N(C)C)cc1` [TSA, tricostatin A], the “total H4 after TSA treatment” value in assay [1] is recorded as “substantially not changed”. Further, the “expression level of tetra-acetylated histone H4 after TSA treatment” value in assay [1] (both Ai::OsHDAC1 and untransformed rice plant callus cells) is given as “greatly increased”.

As to `CC1=CC(=O)CC(C)(C)[C@@]1(O)/C=C/C(C)=C\C(=O)O` [ABA, abscisic acid], the “growth of untransformed plant in the presence of ABA” value in assay [2] was “inhibition of growth”. Besides, in assay [3], the “time after ABA treatment at which expression of the transcription product reaches the maximum level” value is “one”. The “growth of Ai::OsHDAC1 rice plant in the presence of ABA” value in assay [4] is “increase of growth”.

The values are drawn from patent US20040123348A1, “Method for producing a plant with a high-growth rate” (priority 2002, published 2004).
